Measurements from the NIST ThermoML archive (doi:10.1016/j.jct.2007.03.012).
± gives the expanded uncertainty stated by the source.

Settings: Liquid, Bellows volumetry

CCC [propane]
mass density [kg/m3]
Settings	280 K	300 K	320 K	340 K	360 K	380 K	400 K	420 K	440 K
1000 kPa	520.5 ± 0.47	489.81 ± 0.44	–	–	–	–	–	–	–
2000 kPa	522.64 ± 0.47	492.87 ± 0.44	457.48 ± 0.41	–	–	–	–	–	–
3000 kPa	524.74 ± 0.47	495.95 ± 0.45	462.23 ± 0.42	418.14 ± 0.39	–	–	–	–	–
5000 kPa	528.56 ± 0.48	501.37 ± 0.45	470.53 ± 0.43	433.26 ± 0.4	380.9 ± 0.36	–	–	–	–
10000 kPa	537.44 ± 0.48	512.99 ± 0.46	486.59 ± 0.44	457.48 ± 0.42	424.08 ± 0.39	384.1 ± 0.36	334.74 ± 0.33	–	–
20000 kPa	551.94 ± 0.5	530.94 ± 0.48	509.27 ± 0.46	486.91 ± 0.44	463.3 ± 0.42	438.22 ± 0.41	411.69 ± 0.39	384.77 ± 0.36	357.43 ± 0.34
30000 kPa	563.74 ± 0.51	544.91 ± 0.49	525.89 ± 0.47	506.87 ± 0.46	487.16 ± 0.44	466.67 ± 0.43	445.87 ± 0.41	425.47 ± 0.4	405.22 ± 0.38
40000 kPa	573.78 ± 0.52	556.1 ± 0.5	539.36 ± 0.49	522.28 ± 0.47	505.03 ± 0.46	487.15 ± 0.45	469.1 ± 0.44	451.66 ± 0.43	434.68 ± 0.42
50000 kPa	582.55 ± 0.53	566.32 ± 0.51	550.64 ± 0.5	534.97 ± 0.49	519.45 ± 0.47	503.08 ± 0.46	486.87 ± 0.45	471.39 ± 0.44	456.37 ± 0.43
60000 kPa	590.49 ± 0.53	575.16 ± 0.52	560.7 ± 0.51	545.94 ± 0.5	531.56 ± 0.48	516.47 ± 0.47	501.44 ± 0.46	487.29 ± 0.45	473.51 ± 0.44
70000 kPa	597.67 ± 0.54	583.22 ± 0.53	569.45 ± 0.52	555.7 ± 0.51	542.12 ± 0.49	527.94 ± 0.48	513.89 ± 0.47	500.74 ± 0.46	488.02 ± 0.46
80000 kPa	604.54 ± 0.55	590.34 ± 0.53	577.41 ± 0.53	564.27 ± 0.51	551.67 ± 0.5	538.06 ± 0.49	524.67 ± 0.48	512.43 ± 0.47	500.46 ± 0.47
90000 kPa	610.6 ± 0.55	597.08 ± 0.54	584.63 ± 0.53	572.21 ± 0.52	560.11 ± 0.51	547.06 ± 0.5	534.43 ± 0.49	522.77 ± 0.49	511.55 ± 0.48
100000 kPa	616.37 ± 0.56	603.47 ± 0.55	591.38 ± 0.54	579.45 ± 0.53	568.02 ± 0.52	555.29 ± 0.51	543.41 ± 0.5	532.04 ± 0.49	521.4 ± 0.49
120000 kPa	627.11 ± 0.59	614.69 ± 0.56	603.54 ± 0.57	592.54 ± 0.54	581.93 ± 0.53	570.05 ± 0.56	558.91 ± 0.51	548.04 ± 0.55	538.39 ± 0.55
140000 kPa	636.51 ± 0.59	624.98 ± 0.59	614.39 ± 0.58	603.89 ± 0.58	593.99 ± 0.57	582.94 ± 0.57	572.19 ± 0.55	562.28 ± 0.55	553.07 ± 0.56
160000 kPa	645.22 ± 0.6	634.04 ± 0.6	624.07 ± 0.59	614.28 ± 0.58	604.85 ± 0.58	594.15 ± 0.58	583.93 ± 0.56	574.66 ± 0.56	565.84 ± 0.56
180000 kPa	653.38 ± 0.61	642.55 ± 0.58	632.92 ± 0.59	623.6 ± 0.57	614.61 ± 0.56	604.41 ± 0.55	594.64 ± 0.57	585.51 ± 0.54	577.32 ± 0.56
200000 kPa	660.82 ± 0.6	650.24 ± 0.59	641.18 ± 0.58	632.17 ± 0.58	623.73 ± 0.57	613.68 ± 0.56	604.15 ± 0.55	595.61 ± 0.55	587.63 ± 0.54
